Laboratory results taken from the supplement of paper PMC11061612.

Assays:
Gefitinib = compound: COc1cc2ncnc(Nc3ccc(F)c(Cl)c3)c2cc1OCCCN1CCOCC1 [Gefitinib]; details: max 10 µM
Method in brief: (§1)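 Plates with 1536 wells received cancer cell lines in 7.5 μl of DMEM/F12 or RPMI containing 10% FBS. After 24 hours at 37°C and 5% CO2, cells were dosed for 72 hours with final DMSO typically 0.2%, and viability was read by CellTiter-Glo 2.0 luminescence scaled between blank-well and DMSO-well means. The single-agent IC50 was taken from a logistic fit of the dose responses made with a non-linear mixed effects model, that logistic curve having two parameters.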

Palbociclib = compound: CC(=O)c1c(C)c2cnc(Nc3ccc(N4CCNCC4)cn3)nc2n(C2CCCC2)c1=O [Palbociclib]; details: max 10 µM
Method in brief: as §1

Trametinib = compound: CC(=O)Nc1cccc(-n2c(=O)n(C3CC3)c(=O)c3c(Nc4ccc(I)cc4F)n(C)c(=O)c(C)c32)c1 [Trametinib]; details: max 1 µM
Method in brief: as §1

AZD6738 = compound: C[C@@H]1COCCN1C2=NC(=NC(=C2)C3(CC3)[S@](=N)(=O)C)C4=C5C=CNC5=NC=C4 [AZD6738]; details: max 10 µM
Method in brief: as §1

AZD1390 = compound: CC(C)n1c(=O)n(C)c2cnc3cc(F)c(-c4ccc(OCCCN5CCCCC5)nc4)cc3c21 [AZD1390]; details: max 0.3 µM
Method in brief: as §1

Gemcitabine = compound: Nc1ccn([C@@H]2O[C@H](CO)[C@@H](O)C2(F)F)c(=O)n1 [Gemcitabine]; details: max 0.3 µM
Method in brief: as §1

AZD8186 = compound: C[C@@H](Nc1cc(F)cc(F)c1)c1cc(C(=O)N(C)C)cc2c(=O)cc(N3CCOCC3)oc12 [AZD8186]; details: max 10 µM
Method in brief: as §1

Doxorubicin = compound: COc1cccc2c1C(=O)c1c(O)c3c(c(O)c1C2=O)C[C@@](O)(C(=O)CO)C[C@@H]3O[C@H]1C[C@H](N)[C@H](O)[C@H](C)O1 [Doxorubicin]; details: max 1 µM
Method in brief: as §1

Etoposide = compound: COc1cc([C@@H]2c3cc4c(cc3[C@@H](O[C@@H]3O[C@@H]5CO[C@@H](C)O[C@H]5[C@H](O)[C@H]3O)[C@H]3COC(=O)[C@H]23)OCO4)cc(OC)c1O [Etoposide]; details: max 10 µM
Method in brief: as §1

Alisertib = compound: COc1cc(Nc2ncc3c(n2)-c2ccc(Cl)cc2C(c2c(F)cccc2OC)=NC3)ccc1C(=O)O [Alisertib]; details: max 10 µM
Method in brief: as §1

AZD5991 = compound: Cc1c2c(nn1C)CSCc1cc(n(C)n1)CSc1cc(c3ccccc3c1)OCCCc1c(C(=O)O)n(C)c3c-2c(Cl)ccc13 [AZD5991]; details: max 1 µM
Method in brief: as §1

Selumetinib = compound: Cn1cnc2c(F)c(Nc3ccc(Br)cc3Cl)c(C(=O)NOCCO)cc21 [Selumetinib]; details: max 10 µM
Method in brief: as §1

AZD1775 = compound: C=CCn1c(=O)c2cnc(Nc3ccc(N4CCN(C)CC4)cc3)nc2n1-c1cccc(C(C)(C)O)n1 [AZD1775]; details: max 3 µM
Method in brief: as §1

Taselisib = compound: Cc1nc(-c2cn3c(n2)-c2ccc(-c4cnn(C(C)(C)C(N)=O)c4)cc2OCC3)n(C(C)C)n1 [Taselisib]; details: max 10 µM
Method in brief: as §1

Lapatinib = compound: CS(=O)(=O)CCNCc1ccc(-c2ccc3ncnc(Nc4ccc(OCc5cccc(F)c5)c(Cl)c4)c3c2)o1 [Lapatinib]; details: max 10 µM
Method in brief: as §1

AZD7648 = compound: Cc1cc2ncnn2cc1Nc1ncc2c(n1)n(C1CCOCC1)c(=O)n2C [AZD7648]; details: max 10 µM
Method in brief: as §1

MK-2206 = compound: NC1(c2ccc(-c3nc4ccn5c(=O)[nH]nc5c4cc3-c3ccccc3)cc2)CCC1 [MK-2206]; details: max 10 µM
Method in brief: as §1

Dasatinib = compound: CC1=C(C(=CC=C1)Cl)NC(=O)C2=CN=C(S2)NC3=CC(=NC(=N3)C)N4CCN(CC4)CCO [Dasatinib]; details: max 2 µM
Method in brief: as §1

SG3199 = compound: CC1=CN2[C@@H](C1)C=NC3=CC(=C(C=C3C2=O)OC)OCCCCCOC4=C(C=C5C(=C4)N=C[C@@H]6CC(=CN6C5=O)C)OC [SG3199]; details: max 0.001 µM
Method in brief: as §1

Carboplatin = compound: C1CC(C1)(C(=O)[O-])C(=O)[O-].N.N.[Pt+2] [Carboplatin]; details: max 10 µM
Method in brief: as §1

AZD5363 = compound: C1CN(CCC1(C(=O)N[C@@H](CCO)C2=CC=C(C=C2)Cl)N)C3=NC=NC4=C3C=CN4 [AZD5363]; details: max 10 µM
Method in brief: as §1

AZD5153 = compound: COc1nnc2ccc(N3CCC(c4ccc(OCCN5CCN(C)C(=O)[C@H]5C)cc4)CC3)nn12 [AZD5153]; details: max 1 µM
Method in brief: as §1

SN-38 = compound: CCc1c2c(nc3ccc(O)cc13)-c1cc3c(c(=O)n1C2)COC(=O)[C@]3(O)CC [SN-38]; details: max 0.3 µM
Method in brief: as §1

Prexasertib = compound: COc1cccc(OCCCN)c1-c1cc(Nc2cnc(C#N)cn2)n[nH]1 [Prexasertib]; details: max 1 µM
Method in brief: as §1

AZD0156 = compound: CN(C)CCCOc1ccc(-c2ccc3ncc4c(c3c2)n(C2CCOCC2)c(=O)n4C)cn1 [AZD0156]; details: max 3 µM
Method in brief: as §1

AZD2811 = compound: CCN(CCO)CCCOc1ccc2c(Nc3cc(CC(=O)Nc4cccc(F)c4)[nH]n3)ncnc2c1 [AZD2811]; details: max 1 µM
Method in brief: as §1

Venetoclax = compound: CC1(C)CCC(CN2CCN(c3ccc(C(=O)NS(=O)(=O)c4ccc(NCC5CCOCC5)c([N+](=O)[O-])c4)c(Oc4cnc5[nH]ccc5c4)c3)CC2)=C(c2ccc(Cl)cc2)C1 [Venetoclax]; details: max 1 µM
Method in brief: as §1

[1] = compound: O=C(Nc1ccc2[nH]nc(-c3ccncc3)c2c1)[C@@H]1CCN(CC(=O)N2CCN(c3ccc(-c4ncccn4)cc3)CC2)C1; details: max 5 µM
Method in brief: as §1

5-Fluorouracil = compound: O=c1[nH]cc(F)c(=O)[nH]1 [5-Fluorouracil]; details: max 20 µM
Method in brief: as §1

SRA737 = compound: N#Cc1cnc(Nc2cc(NC[C@H]3CNCCO3)c(C(F)(F)F)cn2)cn1 [SRA737]; details: max 10 µM
Method in brief: as §1

AZD4320 = compound: CN(CC[C@H](CSC1=CC=CC=C1)NC2=C(C=C(C=C2)S(=O)(=O)NC(=O)C3=CC=C(C=C3)N4CCC(CC4)[C@H](C5=CC=CC=C5C6=CC=C(C=C6)Cl)O)S(=O)(=O)C(F)(F)F)CCO [AZD4320]; details: max 1 µM
Method in brief: as §1

Crizotinib = compound: C[C@@H](Oc1cc(-c2cnn(C3CCNCC3)c2)cnc1N)c1c(Cl)ccc(F)c1Cl [Crizotinib]; details: max 10 µM
Method in brief: as §1

Olaparib = compound: O=C(c1cc(Cc2n[nH]c(=O)c3ccccc23)ccc1F)N1CCN(C(=O)C2CC2)CC1 [Olaparib]; details: max 10 µM
Method in brief: as §1

Savolitinib = compound: C[C@@H](c1ccc2nccn2c1)n1nnc2ncc(-c3cnn(C)c3)nc21 [Savolitinib]; details: max 1 µM
Method in brief: as §1

Paclitaxel = compound: CC(=O)O[C@H]1C(=O)[C@@]2(C)[C@H]([C@H](OC(=O)c3ccccc3)[C@]3(O)C[C@H](OC(=O)[C@H](O)[C@@H](NC(=O)c4ccccc4)c4ccccc4)C(C)=C1C3(C)C)[C@]1(OC(C)=O)CO[C@@H]1C[C@@H]2O [Paclitaxel]; details: max 3 µM
Method in brief: as §1

Row | Cell Line | IC50, cell viability 72 h (Gefitinib) | IC50, cell viability 72 h (Palbociclib) | IC50, cell viability 72 h (Trametinib) | IC50, cell viability 72 h (AZD6738) | IC50, cell viability 72 h (AZD1390) | IC50, cell viability 72 h (Gemcitabine) | IC50, cell viability 72 h (AZD8186) | IC50, cell viability 72 h (Doxorubicin) | IC50, cell viability 72 h (Etoposide) | IC50, cell viability 72 h (Alisertib) | IC50, cell viability 72 h (AZD5991) | IC50, cell viability 72 h (Selumetinib) | IC50, cell viability 72 h (AZD1775) | IC50, cell viability 72 h (Taselisib) | IC50, cell viability 72 h (Lapatinib) | IC50, cell viability 72 h (AZD7648) | IC50, cell viability 72 h (MK-2206) | IC50, cell viability 72 h (Dasatinib) | IC50, cell viability 72 h (SG3199) | IC50, cell viability 72 h (Carboplatin) | IC50, cell viability 72 h (AZD5363) | IC50, cell viability 72 h (AZD5153) | IC50, cell viability 72 h (SN-38) | IC50, cell viability 72 h (Prexasertib) | IC50, cell viability 72 h (AZD0156) | IC50, cell viability 72 h (AZD2811) | IC50, cell viability 72 h (Venetoclax) | IC50, cell viability 72 h [1] | IC50, cell viability 72 h (5-Fluorouracil) | IC50, cell viability 72 h (SRA737) | IC50, cell viability 72 h (AZD4320) | IC50, cell viability 72 h (Crizotinib) | IC50, cell viability 72 h (Olaparib) | IC50, cell viability 72 h (Savolitinib) | IC50, cell viability 72 h (Paclitaxel)
1 | NTERA-2-cl-D1 (Other Solid Carcinomas) | > 10 µM | > 10 µM | > 1000 nM | > 10 µM | > 300 nM | > 300 nM | > 10 µM | 23.6 nM | > 10000 nM | 453 nM | > 1000 nM | > 10 µM | > 3000 nM | > 10 µM | > 10 µM | > 10 µM | > 10 µM | > 2000 nM | > 1 nM | > 10 µM | > 10 µM | 532 nM | 5.92 nM | > 1000 nM | > 3000 nM | > 1000 nM | > 1000 nM | > 5 µM | > 20 µM | > 10 µM | > 1000 nM | > 10 µM | > 10 µM | > 1000 nM | 415 nM
2 | OVKATE (Ovarian Carcinoma) | > 10 µM | > 10 µM | > 1000 nM | > 10 µM | > 300 nM | > 300 nM | > 10 µM | > 1000 nM | > 10000 nM | > 10000 nM | > 1000 nM | > 10 µM | > 3000 nM | > 10 µM | > 10 µM | > 10 µM | > 10 µM | > 2000 nM | > 1 nM | > 10 µM | > 10 µM | > 1000 nM | > 300 nM | > 1000 nM | > 3000 nM | > 1000 nM | > 1000 nM | > 5 µM | > 20 µM | > 10 µM | > 1000 nM | > 10 µM | > 10 µM | > 1000 nM | > 3000 nM
3 | RPMI-8402 (T-Lymphoblastic Leukemia) | 9.05 µM | 0.3 µM | > 1000 nM | 1.3 µM | > 300 nM | 23.5 nM | 5.45 µM | 68.1 nM | 158 nM | 214 nM | 504 nM | > 10 µM | 183 nM | 1.03 µM | 4.4 µM | > 10 µM | 1.15 µM | > 2000 nM | > 1 nM | > 10 µM | 2.5 µM | 63.1 nM | 2.43 nM | 5.84 nM | > 3000 nM | 33.3 nM | > 1000 nM | 4.09 µM | 9.93 µM | 1.32 µM | 247 nM | 1.63 µM | > 10 µM | > 1000 nM | 6.86 nM
4 | SBC-3 (Small Cell Lung Carcinoma) | > 10 µM | 4.82 µM | > 1000 nM | 5.85 µM | > 300 nM | 14.7 nM | > 10 µM | 71.7 nM | 313 nM | 421 nM | > 1000 nM | > 10 µM | 822 nM | 2.58 µM | > 10 µM | > 10 µM | > 10 µM | > 2000 nM | > 1 nM | > 10 µM | > 10 µM | 64.6 nM | 2.25 nM | 136 nM | > 3000 nM | 636 nM | > 1000 nM | > 5 µM | 4.54 µM | > 10 µM | > 1000 nM | 3.45 µM | > 10 µM | > 1000 nM | 3.8 nM
5 | SK-MEL-24 (Melanoma) | > 10 µM | > 10 µM | 46.3 nM | > 10 µM | > 300 nM | 193 nM | > 10 µM | 701 nM | > 10000 nM | > 10000 nM | > 1000 nM | 2.77 µM | > 3000 nM | 5 µM | > 10 µM | > 10 µM | > 10 µM | > 2000 nM | > 1 nM | > 10 µM | > 10 µM | > 1000 nM | 23.9 nM | 575 nM | > 3000 nM | > 1000 nM | > 1000 nM | 3.27 µM | > 20 µM | > 10 µM | > 1000 nM | > 10 µM | > 10 µM | > 1000 nM | 738 nM
